Values of other authors, collected in EP3332769A1, “SOLID ORAL PHARMACEUTICAL COMPOSITIONS OF TICAGRELOR” (Sanovel Ilac Sanayi ve Ticaret A.S., priority 2016, dated 2018).
Values after ≈ are worked out from the molar mass of the structure shown.

Details: in water

aqueous solubility: 10 µg/mL (≈ 19.1 µM)
Structure (SMILES): CCCSc1nc(N[C@@H]2C[C@H]2c2ccc(F)c(F)c2)c2nnn([C@@H]3C[C@H](OCCO)[C@@H](O)[C@H]3O)c2n1 [Ticagrelor, (1 S,2S,3R,5S)-3-[7-[(1 R,2S)-2-(3,4-Difluorophenyl)cyclopropylamino]-5-(propylthio)-3H-[1,2,3]triazolo[4,5-d]pyrimidin-3-yl] -5-(2-hydroxyethoxy) cyclopentane-1,2-diol]
